Where two headings read alike, the source gives them in different places.
Key:
SET/WRAD2 complex [1] = target: T1, SET/WRAD2 complex (Homo sapiens, UniProt O14686); test: Product and dead-end inhibitor studies, MTase-Glo; type: biochemical; set-up: key to inhibition pattern: C = competitive; NC = noncompetitive; UC = uncompetitive
T1 construct: expressing amino acids 5308-5537 of the hKMT2D catalytic SET domain; 6xHis + TEV site (N, cleaved yes); made in house; host or cells: KMT2D Win-SET: Sf21 (baculovirus); H3 peptides bought from Chinese Peptide Company
Protocol: (§1) SET domain activity was monitored with a quantitative endpoint assay determining AdoHcy production using MTase-Glo by Promega.[39] Assays were performed as time courses at room temperature with buffer constituents, 50 mM Tris, pH 7.5, 50 mM NaCl, 1 mM DTT, 1% DMSO, and 0.005% w/v Triton X-100 in deionized water. […] Addition of 1 μL of 0.5% v/v TFA was used to stop the methylation reaction at defined time points; 1 μL of 6× concentrated MTase-Glo reagent was added to each well and incubated at room temperature. After 30 min, 6 μL of the prefiltered MTase-Glo detection reagent was added and incubated for a further 30 min at room temperature. Luminescence was measured using an Envision 2101 Multilabel plate reader, and product concentrations were calculated using an AdoHcy standard curve. Steady-state rates were obtained by plotting AdoHcy production over time and normalized to SET domain concentration. Experiments were performed in triplicate and expressed as the mean ± SD. Data were analyzed using nonlinear regression in GraphPad Prism v9.1.
Steady-state rates were measured in substrate-inhibitor matrix experiments. Dead-end inhibitor experiments were performed with the second substrate fixed at KM, while product inhibitor experiments fixed the second substrate at KM or 20× KM. Assays using 20× KM AdoMet used a cofactor adjusted to pH 7.5. […] Steady-state rates were globally fitted to competitive, uncompetitive, and noncompetitive inhibition (eqs 6, 7, and 8, respectively).
Competitive inhibition [drawing 6] 6 Uncompetitive inhibition [drawing 7] 7 Noncompetitive inhibition [drawing 8] 8 Mixed inhibition [drawing 9] 9 where ν is the initial rate, Vmax is the maximum velocity of the uninhibited reaction, [S] is the substrate concentration of the varied substrate, [I] is the inhibitor concentration, KM is the Michaelis–Menten constant, and Ki is the inhibition constant. To resolve any ambiguities in assigning inhibition type, the mixed inhibition model was used (eq 9), to derive the value of α, which is a measure of competitive or uncompetitive nature.

hKMT2D SET domain = target: T2, hKMT2D SET domain (Homo sapiens, UniProt O14686); test: WRAD2 titration: MTase-Glo steady-state substrate matrix experiments; type: biochemical; details: eq 1, read-out: Kd^(AdoMet)
T2 construct: expressing amino acids 5308-5537 of the hKMT2D catalytic SET domain; 6xHis + TEV site (N, cleaved yes); made in house; host or cells: KMT2D Win-SET: Sf21 (baculovirus); H3 peptides bought from Chinese Peptide Company
Protocol: as §1
(§2) Steady-state rates were measured in substrate matrix experiments. Data were globally fitted to ternary Bi–Bi and Ping–Pong models to obtain kcat and KM parameters (eqs 1 and 2).
The ternary Bi–Bi model [drawing 1] 1 The Ping–Pong model [drawing 2] 2 where ν is the initial rate, Vmax is the maximum velocity, [A] is the concentration of the varied substrate, [B] the concentration of the fixed substrate, KM^A and KM^B are the Michaelis constants of the varied and fixed substrates, respectively, and Kd is the dissociation constant of the varied substrate. […]

SET/WRAD2 complex [2] = target: T1, SET/WRAD2 complex; test: Steady-state substrate specificity (peptide and nucleosome substrates), MTase-Glo; type: biochemical
Protocol: as §1, §2
Target sequence in this assay (Q15291 whole entry, the tested form may be a part): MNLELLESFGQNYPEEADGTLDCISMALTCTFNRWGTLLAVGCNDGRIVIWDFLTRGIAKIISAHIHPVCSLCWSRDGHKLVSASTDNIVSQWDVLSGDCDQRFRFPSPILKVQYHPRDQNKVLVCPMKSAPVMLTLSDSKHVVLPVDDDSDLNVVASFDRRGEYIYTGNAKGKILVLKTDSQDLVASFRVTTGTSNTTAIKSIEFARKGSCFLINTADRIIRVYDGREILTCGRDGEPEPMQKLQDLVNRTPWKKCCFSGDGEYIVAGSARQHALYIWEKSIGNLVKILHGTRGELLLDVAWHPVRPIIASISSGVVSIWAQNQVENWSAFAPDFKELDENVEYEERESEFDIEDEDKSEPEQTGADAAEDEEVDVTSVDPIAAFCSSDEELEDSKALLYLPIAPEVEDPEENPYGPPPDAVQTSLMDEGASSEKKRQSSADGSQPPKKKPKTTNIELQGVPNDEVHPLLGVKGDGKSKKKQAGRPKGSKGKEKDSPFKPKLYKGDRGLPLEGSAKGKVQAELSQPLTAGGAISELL
Target sequence in this assay (Q9UBL3 95-628, further chain): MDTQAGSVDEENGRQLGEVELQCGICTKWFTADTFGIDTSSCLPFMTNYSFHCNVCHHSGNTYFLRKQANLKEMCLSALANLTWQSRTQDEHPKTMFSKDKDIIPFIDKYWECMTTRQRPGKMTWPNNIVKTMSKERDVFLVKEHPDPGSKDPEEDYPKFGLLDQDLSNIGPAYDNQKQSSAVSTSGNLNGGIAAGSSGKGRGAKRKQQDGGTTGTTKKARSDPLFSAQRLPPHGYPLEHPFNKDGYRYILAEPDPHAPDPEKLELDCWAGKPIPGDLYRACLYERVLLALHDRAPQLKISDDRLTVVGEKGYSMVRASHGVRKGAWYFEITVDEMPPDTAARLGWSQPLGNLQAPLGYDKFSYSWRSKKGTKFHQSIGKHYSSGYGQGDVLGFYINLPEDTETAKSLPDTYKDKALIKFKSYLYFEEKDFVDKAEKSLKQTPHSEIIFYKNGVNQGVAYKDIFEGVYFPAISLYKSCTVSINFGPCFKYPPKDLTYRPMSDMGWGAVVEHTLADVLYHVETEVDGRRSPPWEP
Target sequence in this assay (Q9C005 whole entry, further chain, the tested form may be a part): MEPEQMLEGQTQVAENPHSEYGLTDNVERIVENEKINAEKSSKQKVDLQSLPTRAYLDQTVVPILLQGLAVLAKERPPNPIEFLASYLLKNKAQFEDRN
Target sequence in this assay (O14686 5361-5537): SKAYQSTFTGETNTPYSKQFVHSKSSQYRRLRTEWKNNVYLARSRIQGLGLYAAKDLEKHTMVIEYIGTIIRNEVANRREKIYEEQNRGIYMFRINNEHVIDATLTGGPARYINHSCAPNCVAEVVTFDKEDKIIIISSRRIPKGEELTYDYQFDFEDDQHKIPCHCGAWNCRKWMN
The ternary Bi–Bi model [drawing 1] 1 The Ping–Pong model [drawing 2] 2 where ν is the initial rate, Vmax is the maximum velocity, [A] is the concentration of the varied substrate, [B] the concentration of the fixed substrate, KM^A and KM^B are the Michaelis constants of the varied and fixed substrates, respectively, and Kd is the dissociation constant of the varied substrate.

[3] = target: T3, SET/Ash2L/RbBP5 minimal complex (Homo sapiens, UniProt O14686); test: Substrate matrix experiment with the minimal complex, MTase-Glo; type: biochemical; details: read-out: Kd^(AdoMet)
T3 construct: 6xHis + TEV site (N); made in house; RbBP5 peptide synthetic, Chinese Peptide Company
Protocol: as §1
The ternary Bi–Bi model [drawing 1] 1 The Ping–Pong model [drawing 2] […]

[4] = target: T4, His-SET (5382–5537) + ASH2L (380-496-ISGRGS-539-598) + RbBP5 peptide (Homo sapiens, UniProt O14686); test: SPR binding assays (steady-state affinity); details: minimal complex; 1:1 interaction model
T4 construct: made in house; RbBP5 peptide synthetic, Chinese Peptide Company
Protocol: Surface plasmon resonance experiments were performed using a T200 instrument (Cytiva) equipped with a research-grade NTA sensor S chip (Cytiva) at 20 °C. For immobilization, the instrument was primed with a buffer composed of 10 mM HEPES, pH 7.5, 150 mM NaCl, 0.5 mM TCEP, and 0.05% Tween 20. The NTA chip was conditioned with three 2 min injections of 50 mM NaOH/1 M NaCl and a 2 min injection of 250 mM EDTA. Protein and reference flow cells were then prepared by a 2 min injection of 1 mM NiCl2 and a 7 min injection of 0.2 M EDC/ 0.05 M NHS. Immediately, the protein (500 nM His-SET (5382–5537) + ASH2L (380-496-ISGRGS-539-598) + RbBP5 peptide in immobilization buffer) was injected over the measurement flow cell to the desired RU level, followed by deactivation with a 7 min injection of 1 M ethanolamine pH 8 of all flow cells. For binding measurements, the system was then primed in a running buffer consisting of 50 mM Tris pH 7.5, 150 mM NaCl, 1 mM TCEP, 1–2% DMSO, and 0.05% Tween 20. […] Data processing included solvent correction and blank subtraction. The steady-state data were analyzed using Biaevaluation/Insight Software 1.1 (GE Healthcare/Cytiva) using an implemented 1:1 interaction model.

[5] = target: hKMT2D SET domain (Win-SET protein that lost the Win motif by proteolysis) (human) (UniProt O14686)
[6] = target: hKMT2D SET domain (Win-SET protein that lost the Win motif by proteolysis) (human) (UniProt O14686); remark: listed apart in the source
[7] = tested on: C[S+](CC[C@H](N)C(=O)[O-])C[C@H]1O[C@@H](n2cnc3c(N)ncnc32)[C@H](O)[C@@H]1O; test: Steady-state substrate specificity (peptide and nucleosome substrates), MTase-Glo; type: biochemical, human; details: other: WRAD2, eq 1, pH 7.5
[8] = tested on: C[S+](CC[C@H](N)C(=O)[O-])C[C@H]1O[C@@H](n2cnc3c(N)ncnc32)[C@H](O)[C@@H]1O; test: purified protein, by the assay type; type: biochemical, human; details: pH 7.5
[9] = varied substrate AdoMet, fixed substrate at 20× KM
[10] = varied substrate AdoMet, fixed substrate at KM
[11] = varied substrate H3_1–21, fixed substrate at KM

T2 sequence (Q9UBL3 95-628): as the sequence (Q9UBL3 95-628, further chain) above
T2 sequence (Q9C005 whole entry, further chain, the tested form may be a part): as the sequence (Q9C005 whole entry, further chain, the tested form may be a part) above
T2 sequence (O14686 5361-5537): as the sequence (O14686 5361-5537) above
T2 sequence (Q15291 whole entry, further chain, the tested form may be a part): as the sequence (Q15291 whole entry, the tested form may be a part) above
hKMT2D SET domain (Win-SET protein that lost the Win motif by proteolysis) (human), sequence (O14686 5362-5537): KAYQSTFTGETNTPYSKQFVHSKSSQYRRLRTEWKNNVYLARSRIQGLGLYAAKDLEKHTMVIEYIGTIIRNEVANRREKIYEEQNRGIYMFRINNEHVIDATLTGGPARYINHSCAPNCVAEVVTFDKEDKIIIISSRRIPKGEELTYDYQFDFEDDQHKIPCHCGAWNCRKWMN
Ash2L (absent small or homoeotic 2-like), full length, sequence (Q9UBL3 whole entry, the tested form may be a part): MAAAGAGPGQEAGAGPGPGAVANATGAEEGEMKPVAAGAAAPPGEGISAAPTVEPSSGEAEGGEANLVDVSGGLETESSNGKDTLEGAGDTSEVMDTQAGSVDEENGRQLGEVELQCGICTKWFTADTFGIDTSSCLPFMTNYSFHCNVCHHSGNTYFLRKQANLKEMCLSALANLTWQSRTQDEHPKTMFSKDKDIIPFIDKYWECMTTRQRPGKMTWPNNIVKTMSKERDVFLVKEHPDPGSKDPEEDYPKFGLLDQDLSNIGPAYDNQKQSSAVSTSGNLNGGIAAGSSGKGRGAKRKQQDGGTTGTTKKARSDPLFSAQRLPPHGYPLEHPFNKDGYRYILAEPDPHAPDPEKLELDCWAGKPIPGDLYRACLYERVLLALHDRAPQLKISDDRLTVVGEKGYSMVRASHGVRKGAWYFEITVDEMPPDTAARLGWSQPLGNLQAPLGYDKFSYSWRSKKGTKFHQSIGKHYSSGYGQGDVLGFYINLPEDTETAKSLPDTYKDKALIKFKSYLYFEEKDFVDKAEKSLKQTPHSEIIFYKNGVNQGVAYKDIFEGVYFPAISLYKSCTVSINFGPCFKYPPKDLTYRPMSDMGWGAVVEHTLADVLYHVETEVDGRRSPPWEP
RbBP5 (retinoblastoma-binding protein), full length, sequence (Q15291 whole entry): as the sequence (Q15291 whole entry, the tested form may be a part) above
T4 sequence (O14686 5382-5537): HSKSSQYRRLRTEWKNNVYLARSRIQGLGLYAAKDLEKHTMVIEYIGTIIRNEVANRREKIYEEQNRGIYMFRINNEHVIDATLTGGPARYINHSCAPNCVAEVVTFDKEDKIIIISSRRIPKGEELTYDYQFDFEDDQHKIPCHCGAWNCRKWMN
T3 sequence (O14686 5382-5537, one chain of several): as the sequence (O14686 5382-5537) above

Molecule: Nc1ncnc2c1ncn2[C@@H]1O[C@H](CSCC[C@H](N)C(=O)O)[C@@H](O)[C@H]1O [AdoHcy, S-adenosyl-L-homocysteine]
- Ki (SET/WRAD2 complex [1]; [9]): 2.29 ± 0.2 µM
- inhibition pattern (SET/WRAD2 complex [1]; [9]): C
- α (mixed inhibition model) (SET/WRAD2 complex [1]; [9]): 6.8
- Ki (SET/WRAD2 complex [1]; [10]): 4.95 ± 0.62 µM
- inhibition pattern (SET/WRAD2 complex [1]; [10]): C
- α (mixed inhibition model) (SET/WRAD2 complex [1]; [10]): >1000
- inhibition pattern (SET/WRAD2 complex [1]; varied substrate H3_1–21, fixed substrate at 20× KM): no inhibition
- Ki (SET/WRAD2 complex [1]; [11]): 5.38 ± 0.41 µM
- inhibition pattern (SET/WRAD2 complex [1]; [11]): NC
- α (mixed inhibition model) (SET/WRAD2 complex [1]; [11]): 0.56

Molecule: C[S+](CC[C@H](N)C(=O)[O-])C[C@H]1O[C@@H](n2cnc3c(N)ncnc32)[C@H](O)[C@@H]1O (stereo partly drawn) [AdoMet, S-adenosyl-L-methionine]
- Kd (hKMT2D SET domain; [WRAD2] 0 nM, [SET] 125 nM): 5930 ± 1200 nM
- Kd (hKMT2D SET domain; [WRAD2] 0.125 nM, [SET] 125 nM): 4990 ± 1500 nM
- Kd (hKMT2D SET domain; [WRAD2] 0.5 nM, [SET] 125 nM): 2930 ± 600 nM
- Kd (hKMT2D SET domain; [WRAD2] 1 nM, [SET] 125 nM): 1610 ± 580 nM
- Kd (hKMT2D SET domain; [WRAD2] 2 nM, [SET] 125 nM): 610 ± 360 nM
- Kd (hKMT2D SET domain; [WRAD2] 4 nM, [SET] 125 nM): 650 ± 380 nM
- Kd (hKMT2D SET domain; [WRAD2] 6.25 nM, [SET] 30 nM): 1540 ± 360 nM
- Kd (hKMT2D SET domain; [WRAD2] 10 nM, [SET] 30 nM): 1420 ± 560 nM
- Kd (hKMT2D SET domain; [WRAD2] 15 nM, [SET] 30 nM): 990 ± 300 nM
- Kd (hKMT2D SET domain; [WRAD2] 25 nM, [SET] 30 nM, substrate H3_1–21): 850 ± 480 nM
- Kd (hKMT2D SET domain; [WRAD2] 125 nM, [SET] 30 nM): 540 ± 310 nM
- Kd (hKMT2D SET domain; [WRAD2] […], [SET] 125 nM): 5020 ± 680 nM
- Kd (SET/WRAD2 complex [2]; eq 1, substrate Me1H3_1–21, read-out: Kd^(AdoMet)): 3760 ± 490 nM
- Kd (SET/WRAD2 complex [2]; eq 1, substrate Me2H3_1–21, read-out: Kd^(AdoMet)): 40 nM
- Kd [3]: 7.63 ± 0.46 µM
- Kd [4]: 9 ± 2 µM

Molecule: Nc1ncnc2c1ncn2[C@@H]1O[C@H](C[C@@H](N)CC[C@H](N)C(=O)O)[C@@H](O)[C@H]1O [sinefungin]
- Ki (SET/WRAD2 complex [1]; [10]): 11 ± 0.46 µM
- inhibition pattern (SET/WRAD2 complex [1]; [10]): C
- α (mixed inhibition model) (SET/WRAD2 complex [1]; [10]): 21.1
- Ki (SET/WRAD2 complex [1]; [11]): 10.3 ± 0.79 µM
- inhibition pattern (SET/WRAD2 complex [1]; [11]): UC
- α (mixed inhibition model) (SET/WRAD2 complex [1]; [11]): 0.16

Molecule: Ash2L (absent small or homoeotic 2-like), full length (from UniProt Q9UBL3 1-628) (natural protein)
- H3 1-21 affinity (KM) of the SET domain with Ash2L alone, 1:1, 5 μM AdoMet [5]: 2 fold
- Kd assigned to Ash2L from the WRAD2 titration of H3 1-21 affinity (steady-state kinetics) [6]: 4 nM

Molecule: RbBP5 (retinoblastoma-binding protein), full length (from UniProt Q15291 1-538) (natural protein)
- Kd assigned to RbBP5 from the WRAD2 titration of kcat (steady-state kinetics) [6]: 12 nM

Molecule: SET/WRAD2 complex (Homo sapiens)
- Km ([7]; substrate Me1H3_1–21): 5.22 ± 0.32 µM
- Km ([7]; substrate Me2H3_1–21): 3.48 ± 0.36 µM

Molecule: hKMT2D SET domain (Homo sapiens)
- Km ([8]; other: 25 nM WRAD2, Ping–Pong model eq 2, substrate H3_1–21): 5.10 ± 0.32 µM
- Km ([8]; other: [WRAD2] 0 nM, [SET] 125 nM, eq 1): 5.38 ± 1.0 µM
- Km ([8]; other: [WRAD2] 0.125 nM, [SET] 125 nM, eq 1): 5.48 ± 1.25 µM
- Km ([8]; other: [WRAD2] 0.5 nM, [SET] 125 nM, eq 1): 3.61 ± 0.51 µM
- Km ([8]; other: [WRAD2] 1 nM, [SET] 125 nM, eq 1): 4.55 ± 0.62 µM
- Km ([8]; other: [WRAD2] 2 nM, [SET] 125 nM, eq 1): 4.18 ± 0.50 µM
- Km ([8]; other: [WRAD2] 4 nM, [SET] 125 nM, eq 1): 2.36 ± 0.28 µM
- Km ([8]; other: [WRAD2] 6.25 nM, [SET] 30 nM, eq 1): 3.07 ± 0.16 µM
- Km ([8]; other: [WRAD2] 10 nM, [SET] 30 nM, eq 1): 3.89 ± 0.33 µM
- Km ([8]; other: [WRAD2] 15 nM, [SET] 30 nM, eq 1): 4.77 ± 0.22 µM
- Km ([8]; other: [WRAD2] 25 nM, [SET] 30 nM, eq 1, substrate H3_1–21): 4.65 ± 0.34 µM
- Km ([8]; other: [WRAD2] 125 nM, [SET] 30 nM, eq 1): 4.71 ± 0.25 µM
- Km ([8]; other: [WRAD2] […], [SET] 125 nM, eq 1): 6.28 ± 0.65 µM

Reference: PMC9494746 (Biochemistry, 2022)
